Tests used:
AHR [1] = experiment: AHR activation in mouse ileal enteroids (Cyp1a1 qRT-PCR); type: cell-based; design: Cyp1a1 expression (AHR activation) in enteroids: dose or concentration left out as unconfirmed
Method: (§1) Primary intestinal crypt cultures (enteroids) were generated from the ileum of neonatal (p7-p11) wild type and Ahr′ mice at as described, Neal et al., 2012, and maintained in Matrigel (Corning). The enteroids were digested and passed using TrypLE Express (Gibco) weekly, and used between passage 3 and 10 for all experiments. The enteroids were pre-treated with I3C ([…], 12 h), A18 (20 μM, 12 h) or human breast milk (100 μL/mL, Innovative Research, prepared by 5-minute-cenrifugation at 12,000 g and then filtration of supernatant through a 0.22-μm filter) and then treated with LPS (50 μg/mL) for 4 hours for further analysis.
(§2) Primary intestinal crypt cultures (enteroids) were generated from the ileum of neonatal (p7-p11) mice at as described, Neal et al., 2012, and maintained in Matrigel (Corning). The enteroids were digested and passed using TrypLE Express (Gibco) weekly, and used between passage 3 and 10 for all experiments. The enteroids were pre-treated with tested compound (40 uM, overnight) and then treated with LPS (50 μg/mL) for 6 hours for further analysis.
(§3) Total RNA was isolated using the RNeasy mini kit (Qiagen) and complementary DNA was synthesized from 0.5 μg RNA using QuantiTect Reverse Transcription kit (Qiagen) following the manufacturer's protocols. The mRNA quantification was performed on the Bio-Rad CFX96 Real-Time System (Bio-Rad) using iTaq™ universal SYBR® Green supermix (Bio-Rad) and the primers listed in Table 2. The relative mRNA expression levels were normalized against the expression of the housekeeping gene ribosomal protein lateral stalk subunit P0 (Rplp0).

TLR4 = TLR4 signaling in mouse ileal enteroids (LPS-induced Tnf-a qRT-PCR); type: cell-based; settings: I3C or breast milk pre-treatment, LPS 50 μg/mL
Method: as §1, §2, §3

AHR [2] = experiment: AHR activation in human ileal explant culture (Cyp1a1 qRT-PCR); type: cell-based; settings: 200 μM I3C or 20 μM A18, 15 minutes pre-treatment then 6 hours
Source text: De-identified human ileal samples were collected via waiver of consent from the Office of Human Subjects Research Review Boards at Johns Hopkins University (IRB00094036), during surgery for NEC or at the time of stoma closure. For RNA isolation and qRT-PCR analysis, fresh samples were snapfrozen in liquid nitrogen immediately. For human explant culture, fresh ileum samples from NEC patients or patient undergoing stoma re-anastomosis were washed with sterile phosphate-buffered saline containing gentamycin (5 μg/mL), minced into 2- to 4-mm diameter pieces, and then cultured in Dulbecco's modified Eagle growth medium supplemented with 10% fetal bovine serum, 4 μg/mL human recombinant insulin and 100 μg/mL Primocin. […]
Total RNA was isolated using the RNeasy mini kit (Qiagen) and complementary DNA was synthesized from 0.5 μg RNA using QuantiTect Reverse Transcription kit (Qiagen) following the manufacturer's protocols. The mRNA quantification was performed on the Bio-Rad CFX96 Real-Time System (Bio-Rad) using iTaq™ universal SYBR® Green supermix (Bio-Rad) and the primers listed in Table 1. […] For microRNA isolation, freshly harvested, snap-frozen ileal tissue was subjected to total RNA isolation using the RNeasy plus universal mini kit (Qiagen) and miRNA was quantified using miScript PCR starter kit (Qiagen) following the manufacturer's protocols. […]

[3] = system: miR-146b, miR-223 and let-7i; experiment: Tlr4 regulatory microRNAs in mouse ileum; type: in vivo; settings: I3C 25 mg/kg body weight/day for 24 hours
Method: Total RNA was isolated using the RNeasy mini kit (Qiagen) and complementary DNA was synthesized from 0.5 μg RNA using QuantiTect Reverse Transcription kit (Qiagen) following the manufacturer's protocols. The mRNA quantification was performed on the Bio-Rad CFX96 Real-Time System (Bio-Rad) using iTaq™ universal SYBR® Green supermix (Bio-Rad) and the primers listed in Table 1. The relative mRNA expression levels were normalized against the expression of the housekeeping gene ribosomal protein lateral stalk subunit P0 (Rplp0). For microRNA isolation, freshly harvested, snap-frozen ileal tissue was subjected to total RNA isolation using the RNeasy plus universal mini kit (Qiagen) and miRNA was quantified using miScript PCR starter kit (Qiagen) following the manufacturer's protocols. The relative miRNA expression levels were normalized against the expression of housekeeping miRNA miR-191.

**Q.** For `OCc1c[nH]c2ccccc12` [I3C, indole-3-carbinol], which “Cyp1a1 expression (AHR activation) in enteroids” value (AHR [1]; Ahr^−/− enteroids, I3C or human breast milk) is on record?
**A.** not

**Q.** And the “Cyp1a1 expression (AHR activation) in enteroids” value (AHR [1]; wild-type enteroids, I3C (12 h) or human breast milk (100 μL/mL))?
**A.** induced the expression of Cyp1a1

**Q.** What about the “LPS-induced Tnfa expression in enteroids” value (TLR4; Ahr^−/− enteroids) of the same compound?
**A.** not

**Q.** And the “LPS-induced Tnfa expression in enteroids” value (TLR4; wild-type enteroids)?
**A.** significantly reduced the LPS-mediated induction of Tnfa

**Q.** What about the “Cyp1a1 expression in human intestinal explant cultures” value (AHR [2]) of the same compound?
**A.** induced the expression of Cyp1a1

**Q.** And the “expression in the ileum of microRNAs miR-146b, miR-223 and let-7i” value ([3]; Ahr^−/− mice)?
**A.** did not increase the expression of these microRNAs

**Q.** And the “expression in the ileum of microRNAs miR-146b, miR-223 and let-7i” value ([3]; wild type mice)?
**A.** significantly upregulated
